Key:
Format in all cases: in vivo
[1] = test system: Diamond Back Moth (Plutella xylostella); assay: B.1 Diamond Back Moth (Plutella xylostella), cabbage leaf dip; conditions: foliar, 500 ppm, 3rd instar larvae on dipped cabbage leaves, 72 hours after treatment, in comparison with untreated controls, read-out: mortality
Method: B.1 Diamond Back Moth (Plutella xylostella)
The active compound was dissolved at the desired concentration in a mixture of 1:1 (vol:vol) distilled water:aceteone. Surfactant (Kinetic HV) was added at a rate of 0.01% (vol/vol). The test solution was prepared at the day of use.
Leaves of cabbage were dipped in test solution and air-dried. Treated leaves were placed in petri dishes lined with moist filter paper and inoculated with ten 3rd instar larvae. Mortality was recorded 72 hours after treatment. Feeding damages were also recorded using a scale of 0-100%.

[2] = test system: Boll Weevil (Anthonomus grandis); assay: B.3 Boll Weevil (Anthonomus grandis), microtiter plate insect diet; conditions: 120 h, 800 ppm, sprayed onto insect diet, 5 days, in comparison with untreated controls, read-out: mortality (egg and larval)
How it was run: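 Compounds in 25% DMSO/water sprayed at several concentrations onto insect diet in microtiter wells holding 5–10 A. grandis eggs, two replicates. Plates kept 5 days at about 25±1 °C and 75±5% RH. Egg and larval mortality scored visually.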

[3] = test system: Mediterranean Fruitfly (Ceratitis capitata); assay: B.6 Mediterranean Fruitfly (Ceratitis capitata), microtiter plate insect diet; conditions: 120 h, 800 ppm, sprayed onto insect diet, 5 days, in comparison with untreated controls, read-out: mortality (egg and larval)
How it was run: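 Insect diet with 50-80 C. capitata eggs sprayed with compounds formulated in 75% water/25% DMSO, at different concentrations, two replications. Incubation at about 28±1° C and 80±5% relative humidity for 5 days, then egg and larval mortality assessed visually.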

[4] = test system: Tobacco Budworm (Heliothis virescens); assay: B.7 Tobacco Budworm (Heliothis virescens) I, microtiter plate insect diet; conditions: 120 h, 800 ppm, sprayed onto insect diet, 5 days, in comparison with untreated controls, read-out: mortality (egg and larval)
How it was run: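 96-well plates with insect diet and 15-25 H. virescens eggs; compounds in 75% water/25% DMSO sprayed onto diet at several concentrations, two replicates. Plates held at about 28±1° C. and 80±5% relative humidity for 5 days, then egg and larval mortality scored visually.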

[5] = test system: Green Peach Aphid (Myzus persicae); assay: B.9 Green Peach Aphid (Myzus persicae), sprayed bell pepper plants; conditions: 120 h, infested bell pepper plants sprayed, after 5 days, in comparison with untreated controls
Method: B.9 Green Peach Aphid (Myzus persicae)
(§1) The active compounds were formulated by a Tecan liquid handler in 100% cyclohexa none as a 10,000 ppm solution supplied in tubes. The 10,000 ppm solution was serially diluted in 100% cyclohexanone to make interim solutions. These served as stock solutions for which final dilutions were made by the Tecan in 50% acetone:50% water (v/v) into 5 or 10 ml glass vials. A nonionic surfactant (Kinetic®) was included in the solution at a volume of 0.01% (v/v). The vials were then inserted into an automated electrostatic sprayer equipped with an atomizing nozzle for application to plants/insects.
Bell pepper plants at the first true-leaf stage were infested prior to treatment by placing heavily infested leaves from the main colony on top of the treatment plants. Aphids were allowed to transfer overnight to accomplish an infestation of 30-50 aphids per plant and the host leaves were removed. The infested plants were then sprayed by an automated electrostatic plant sprayer equipped with an atomizing spray nozzle. The plants were dried in the sprayer fume hood, removed, and then maintained in a growth room under fluorescent lighting in a 24-hr photoperiod at about 25° C. and about 20-40% relative humidity. Aphid mortality on the treated plants, relative to mortality on untreated control plants, was determined after 5 days.

[6] = test system: Orchid thrips (dichromothrips corbetti); assay: B.12 Orchid thrips (dichromothrips corbetti), floral-immersion technique; conditions: adult thrips on dipped orchid petals, 72 hours after treatment, in comparison with untreated controls
Method: B.12 Orchid thrips (dichromothrips corbetti)
Dichromothrips corbetti adults used for bioassay were obtained from a colony maintained continuously under laboratory conditions. For testing purposes, the test compound is diluted in a 1:1 mixture of acetone:water (vol:vol), plus Kinetic HV at a rate of 0.01% v/v.
Thrips potency of each compound was evaluated by using a floral-immersion technique. All petals of individual, intact orchid flowers were dipped into treatment solution and allowed to dry in Petri dishes. Treated petals were placed into individual resealable plastic along with about 20 adult thrips. All test arenas were held under continuous light and a temperature of about 28° C. for duration of the assay. After 3 days, the numbers of live thrips were counted on each petal. The percent mortality was recorded 72 hours after treatment.

[7] = test system: Southern Armyworm (Spodoptera eridania), 2nd Instar Larvae; assay: B.10 Southern Armyworm (Spodoptera eridania), 2nd Instar Larvae, sprayed lima bean plants; conditions: 96 h, 300 ppm, larvae on sprayed lima bean plants, 4 days after treatment, in comparison with untreated controls, read-out: mortality
Method: B.10 Southern Armyworm (Spodoptera eridania), 2nd Instar Larvae
as §1, with “cyclohexanone” for “cyclohexa none”
Lima bean plants (variety Sieva) were grown 2 plants to a pot and selected for treatment at the 1st true leaf stage. Test solutions were sprayed onto the foliage by an automated electrostatic plant sprayer equipped with an atomizing spray nozzle. The plants were dried in the sprayer fume hood and then removed from the sprayer. Each pot was placed into perforated plastic bags with a zip closure. About 10 to 11 armyworm larvae were placed into the bag and the bags zipped closed. Test plants were maintained in a growth room at about 25° C. and about 20-40% relative humidity for 4 days, avoiding direct exposure to fluorescent light (24 hour photoperiod) to prevent trapping of heat inside the bags. Mortality and reduced feeding were assessed 4 days after treatment, compared to untreated control plants.

[8] = test system: Yellow Fever Mosquito (Aedes aegypti); assay: whole plant or invertebrate; conditions: 48 h, freshly hatched larvae in tap water, 2 days, in comparison with untreated controls, read-out: mortality (larval)
Method: B.11 Yellow Fever Mosquito (Aedes aegypti)
For evaluating control of yellow fever mosquito (Aedes aegypti) the test unit consisted of 96-well-microtiter plates containing 200 μl of tap water per well and 5-15 freshly hatched A. aegypti larvae.
The active compounds were formulated using a solution containing 75% (v/v) water and 25% (v/v) DMSO. Different concentrations of formulated compounds or mixtures were sprayed onto the insect diet at 2.5 μl, using a custom built micro atomizer, at two replications.

Cc1ccc(NC(=S)N/N=C/c2ccc3c(ccc4c3ncn4-c3ccc(OC(F)(F)F)cc3)c2)c(C)c1 [C-2, 1-(2,4-dimethylphenyl)-3-[(E)-[3-[4-(trifluoromethoxy)phenyl]benzo[e]benzimidazol-7-yl]methyleneamino] thiourea]
≥ 75%: mortality at 500 ppm [1] | mortality at 800 ppm [2] | mortality at 800 ppm [3] | mortality at 800 ppm [4] | mortality at 800 ppm [5]

Cc1cccc(C)c1NC(=S)N/N=C/c1ccc2c(c1)CCc1c-2noc1-c1ccc(OC(F)(F)F)cc1 [C-7, 1-(2,6-dimethylphenyl)-3-[(E)-[3-[4-(trifluoromethoxy)phenyl]-4,5-dihydrobenzo[g][2,1]benzoxazol-7-yl]methyleneamino]thiourea]
≥ 75%: mortality at 800 ppm [4] | mortality at 800 ppm [5] | mortality at 500 ppm [6]

CCc1ccccc1NC(=S)N/N=C/c1ccc2c(ccc3c2ncn3-c2ccc(OC(F)(F)F)cc2)c1 [C-22, 3-(2-ethylphenyl)-1-[[3-[4-(trifluoromethoxy)phenyl]-9aH-benzo[e]benzimidazol-7-ylidene]methylimino] isothiourea]
≥ 75%: mortality at 500 ppm [1] | mortality at 800 ppm [2] | mortality at 800 ppm [3] | mortality at 800 ppm [4] | mortality at 300 ppm [7] | mortality at 800 ppm [8] | mortality at 500 ppm [6]

Cc1ccccc1NC(=S)N/N=C/c1ccc2c(ccc3c2ncn3-c2ccc(OC(F)(F)F)cc2)c1 [C-23, 3-(o-tolyl)-1-[[3-[4-(trifluoromethoxy)phenyl]-9aH-benzo[e]benzimidazol-7-ylidene]methylimino]isothiourea]
≥ 75%: mortality at 500 ppm [1] | mortality at 800 ppm [2] | mortality at 800 ppm [3] | mortality at 800 ppm [4] | mortality at 300 ppm [7] | mortality at 500 ppm [6]

O=[N+]([O-])c1ccccc1NC(=S)N/N=C/c1ccc2c(ccc3c2ncn3-c2ccc(OC(F)(F)F)cc2)c1 [C-31, 3-(2-nitrophenyl)-1-[[3-[4-(trifluoromethoxy)phenyl]-9aH-benzo[e]benzimidazol-7-ylidene]methylimino] isothiourea]
≥ 75%: mortality at 800 ppm [2] | mortality at 800 ppm [4] | mortality at 800 ppm [5]

FC(F)(F)Oc1ccc(-n2nnc3c4ccc(/C=N/NC(=S)Nc5c(Cl)cccc5Cl)cc4ccc32)cc1 [C-57, 1-(2,6-dichlorophenyl)-3-[(E)-[3-[4-(trifluoromethoxy)phenyl]benzo[e]benzotriazol-7-yl]methyleneamino] thiourea]
≥ 75%: mortality at 800 ppm [5]

CCc1cccnc1NC(=S)N/N=C/c1ccc2c(ccc3c2ncn3-c2ccc(OC(F)(F)F)cc2)c1 [C-68, 1-(3-ethyl-2-pyridyl)-3-[(E)-[3-[4-(trifluoromethoxy)phenyl]benzo[e]benzimidazol-7-yl]methyleneamino] thiourea]
≥ 75%: mortality at 500 ppm [1] | mortality at 800 ppm [2] | mortality at 800 ppm [3] | mortality at 300 ppm [7]

Fc1cccc(F)c1NC(=S)N/N=C/c1ccc2c(ccc3c2ncn3-c2ccc(OC(F)(F)F)cc2)c1 [C-71, 1-(2,6-difluorophenyl)-3-[(E)-[3-[4-(trifluoromethoxy)phenyl]benzo[e]benzimidazol-7-yl]methyleneamino] thiourea]
≥ 75%: mortality at 800 ppm [2] | mortality at 800 ppm [3] | mortality at 800 ppm [4] | mortality at 300 ppm [7]

Cc1cccc(C)c1NC(=S)N/N=C/c1ccc2c(ccc3c(-c4ccc(OC(F)(F)F)cc4)onc32)c1 [C-84, 1-(2,6-dimethylphenyl)-3-[(E)-[3-[4-(trifluoromethoxy)phenyl]benzo[g][2,1]benzoxazol-7-yl]methyleneamino] thiourea]
≥ 75%: mortality at 800 ppm [3] | mortality at 800 ppm [4] | mortality at 800 ppm [5]

Cc1cccc(C)c1NC(=S)N(C)/N=C/c1ccc2c(ccc3c2ncn3-c2ccc(OC(F)(F)F)cc2)c1 [C-85, 3-(2,6-dimethylphenyl)-1-methyl-1-[(E)-[3-[4-(trifluoromethoxy)phenyl]benzo [e]benzimidazol-7-yl]methyleneamino] thiourea]
≥ 75%: mortality at 500 ppm [1] | mortality at 800 ppm [2] | mortality at 800 ppm [3] | mortality at 800 ppm [4] | mortality at 300 ppm [7] | mortality at 800 ppm [8] | mortality at 500 ppm [6]

Cc1cccc([S+](C)[O-])c1NC(=S)N/N=C/c1ccc2c(ccc3c2ncn3-c2ccc(OC(F)(F)F)cc2)c1 (stereo not shown) [C-104, 1-(2-methyl-6-methylsulfinyl-phenyl)-3-[(E)-[3-[4-(trifluoromethoxy)phenyl]benzo[e]benzimidazol-7-yl]methyleneamino]thiourea]
≥ 75%: mortality at 500 ppm [1] | mortality at 800 ppm [2] | mortality at 800 ppm [3] | mortality at 800 ppm [4] | mortality at 300 ppm [7] | mortality at 800 ppm [8] | mortality at 500 ppm [6]

Cc1cccc(C)c1NC(=S)N/N=C/c1ccc2c(ccc3c2ncn3-c2ccc(Cl)cc2)c1 [C-106, 1-[(E)-[3-(4-chlorophenyl)benzo[e]benzimidazol-7-yl]methyleneamino]-3-(2,6-dimethylphenyl)thiourea]
≥ 75%: mortality at 800 ppm [2] | mortality at 800 ppm [3] | mortality at 800 ppm [4] | mortality at 300 ppm [7] | mortality at 800 ppm [8]

Cc1cccc(C)c1NC(=S)N/N=C/c1ccc2c(c1)CCc1c-2nn(C)c1-c1ccc(OC(F)(F)F)cc1 [C-107, 1-(2,6-dimethylphenyl)-3-[(E)-[2-methyl-3-[4-(trifluoromethoxy)phenyl]-4,5-dihydrobenzo[g]indazol-7-yl]methyleneamino]thiourea]
≥ 75%: mortality at 500 ppm [1] | mortality at 800 ppm [2] | mortality at 800 ppm [3] | mortality at 800 ppm [4] | mortality at 300 ppm [7] | mortality at 800 ppm [8] | mortality at 500 ppm [6]

Cc1cccc(C)c1NC(=S)N/N=C/c1ccc2c(ccc3c2ncn3-c2ccc(C(F)(F)C(F)(F)F)cc2)c1 [C-110, 1-(2,6-dimethylphenyl)-3-[(E)-[3-[4-(1,1,2,2,2-pentafluoroethyl)phenyl]benzo[e]benzimidazol-7-yl]methyleneamino]thiourea]
≥ 75%: mortality at 800 ppm [2] | mortality at 800 ppm [3] | mortality at 800 ppm [4] | mortality at 800 ppm [5] | mortality at 800 ppm [8]

— patent US9497970B2, “Pesticide compounds” (priority 2013, dated 2016)
